# Assay results as given in patent publication US8546380B2, “Aminodihydrothiazine derivatives” (Shionogi & Co., Ltd., priority 2005, dated 2013).
# Target: recombinant human BACE-1 protein (Homo sapiens (Human), UniProt P56817)
# Assay: Measurement of Inhibition of β-Secretase Activity
# Format: biochemical
# Settings: not given
# Description: Zero point five μL of the test compounds (dissolved in N,N′-dimethylsulfoxide) were incubated with 48.5 μL of the fluorescence-quenched peptide substrate solution (Biotin-XSEVNLDAEFRHDSGC-Eu:X=ε-amino-n-capronic acid, Eu=Europium cryptate) and 1 μL of recombinant human BACE-1 protein (R&D systems) for 3 h at 30° C. in the 96 well half-area plate (black color plate, Costar). The substrate peptide was synthesized by reacting with Biotin-XSEVNLDAEFRHDSGC (Peptide Institute) and Cryptate TBPCOOH mono SMP (CIS bio international). […] The enzymatic reaction was performed in sodium acetate buffer (50 mM sodium acetate (pH5.0), 0.008% Triton X-100). After the reaction, a 50 μL of 8.0 μg/mL Streptavidin-XL665 (CIS bio international) dissolved in phosphate buffer (150 mM K2HPO4—KH2PO4 (pH 7.0), 0.008% Triton X-100, 0.8 M KF) was add to each well and incubated for 1 h at 30° C.
# recombinant human BACE-1 protein, sequence (P56817 46-501): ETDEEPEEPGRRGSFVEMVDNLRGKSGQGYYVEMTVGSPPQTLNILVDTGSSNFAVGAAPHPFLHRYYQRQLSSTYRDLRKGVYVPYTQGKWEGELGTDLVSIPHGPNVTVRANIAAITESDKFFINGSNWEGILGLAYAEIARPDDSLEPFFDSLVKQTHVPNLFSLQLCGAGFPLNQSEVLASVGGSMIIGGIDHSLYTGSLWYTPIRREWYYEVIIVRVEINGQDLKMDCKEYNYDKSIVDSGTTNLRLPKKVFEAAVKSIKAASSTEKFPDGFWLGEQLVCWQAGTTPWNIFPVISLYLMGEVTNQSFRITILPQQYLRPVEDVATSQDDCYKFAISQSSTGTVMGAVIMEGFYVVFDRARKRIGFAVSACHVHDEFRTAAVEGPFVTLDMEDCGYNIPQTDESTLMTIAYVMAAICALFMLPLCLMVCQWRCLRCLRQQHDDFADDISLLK
row,SMILES,IC50 [µM]
1,CC1(c2cccc(COC(=O)Cc3ccccc3)c2)CCSC(N)=N1 (stereo not drawn) [Compound 1140],< 100

# Same assay, conditions: fluorescence-quenched peptide substrate 18 nM, BACE-1 7.4 nM, 3 h at 30° C., pH5.0; read-out: IC50 value
row,SMILES,IC50 [µM]
1,Cc1cc(C(=O)Nc2cccc(C3(C)CCSC(N)=N3)c2)c(C)o1 (stereo not drawn) [Compound 578],< 100
2,CC1(c2cccc(NC(=O)CCNC(=O)c3ccc(F)cn3)c2)CCSC(N)=N1 (stereo not drawn) [Compound 816],< 100
3,CCOC(=O)C#Cc1cccc(C2(C)CCSC(N)=N2)c1 (stereo not drawn) [Compound 933],< 100
4,CC1(c2cccc(NC(=O)c3cccc(Cl)c3)c2)CCSC(N)=N1 (stereo not drawn) [Compound 568],< 100
5,CC1(c2cccc(NC(=O)CCNC(=O)c3ccc(F)cc3)c2)CCSC(N)=N1 (stereo not drawn) [Compound 216],< 100
6,CC1(c2ccc(F)c(NC(=O)c3ccccc3C(F)(F)F)c2)CCSC(N)=N1 (stereo not drawn) [Compound 345],< 100
7,CC1(c2cccc(NC(=O)c3ccc4c(c3)OCO4)c2)CCSC(N)=N1 (stereo not drawn) [Compound 796],< 100
8,CC1(c2cccc(NCCc3ccc(F)cc3)c2)CCSC(N)=N1 (stereo not drawn) [Compound 966],< 100
9,CC1(c2cccc(CNC(=O)Nc3ccccc3)c2)CCSC(N)=N1 (stereo not drawn) [Compound 4],< 100
10,C[C@@H](NC(=O)c1cc(NC(=O)c2ccc(Cl)cn2)cc(C2(C)CCSC(N)=N2)c1)c1ccccc1 (stereo partly drawn) [Compound 1099],< 100
11,CC1(c2cc(NC(=O)c3ccc[nH]3)ccc2F)CCSC(N)=N1 (stereo not drawn) [Compound 115],< 100
12,CC1(c2ccc(F)c(C(=O)NCc3ccccc3)c2)CCSC(N)=N1 (stereo not drawn) [Compound 558],< 100
13,CC1(c2cccc(NC(=O)c3cc(Br)ccc3Cl)c2)CCSC(N)=N1 (stereo not drawn) [Compound 986],< 100
14,COc1ccc(NC(=O)NCc2cccc(C3(C)CCSC(N)=N3)c2)cc1 (stereo not drawn) [Compound 159],< 100
15,Cc1cc(C(=O)Nc2cc(C3(C)CCSC(N)=N3)ccc2F)c(C)o1 (stereo not drawn) [Compound 607],< 100
16,CC1(c2cccc(NC(=O)c3ccc4occc4c3)c2)CCSC(N)=N1 (stereo not drawn) [Compound 1009],< 100
17,CC1(c2cccc(NC(=O)C(=O)Nc3ccccc3)c2)CCSC(N)=N1 (stereo not drawn) [Compound 1147],< 100
18,CCOc1ccc(NC(=O)COc2cccc(C3(C)CCSC(N)=N3)c2)cc1 (stereo not drawn) [Compound 809],< 100
19,CC1(c2cccc(NC(=O)c3ccc(OC(F)(F)F)cc3)c2)CCSC(N)=N1 (stereo not drawn) [Compound 175],< 100
20,CC1(c2cc(Br)cc(NC(=O)c3ccc(Cl)cc3)c2)CCSC(N)=N1 (stereo not drawn) [Compound 463],< 100
21,Cc1ccc(C(=O)Nc2cccc(C3(C)CCSC(N)=N3)c2)c(O)c1 (stereo not drawn) [Compound 569],< 100
22,COc1ccc(CC(=O)NCc2cccc(C3(C)CCSC(N)=N3)c2)cc1 (stereo not drawn) [Compound 910],< 100

row,SMILES,IC50 [µM]
1,CC1(c2cccc(C(=O)NCCc3ccc(Cl)cc3)c2)CCSC(N)=N1 (stereo not drawn) [Compound 451],< 100
2,CC1(c2cccc(NC(=O)c3cccc4c3OCCO4)c2)CCSC(N)=N1 (stereo not drawn) [Compound 207],< 100
3,Cc1nocc1C(=O)Nc1cccc(C2(C)CCSC(N)=N2)c1 (stereo not drawn) [Compound 307],< 100
4,Cc1cccnc1C(=O)Nc1cccc(C2(C)CCSC(N)=N2)c1 (stereo not drawn) [Compound 240],< 100
5,CC1(c2cc(NC(=O)c3ccc(Cl)cc3Cl)ccc2F)CCSC(N)=N1 (stereo not drawn) [Compound 544],< 100
6,Cn1c(CNc2cccc(C3(C)CCSC(N)=N3)c2)cc2ccccc21 (stereo not drawn) [Compound 78],< 100
7,CC1(c2ccc(F)c(NS(=O)(=O)c3ccc(Cl)cc3)c2)CCSC(N)=N1 (stereo not drawn) [Compound 493],< 100
8,COc1ccc(C2(C)CCSC(N)=N2)cc1C(=O)Nc1ccc(Cl)cn1 (stereo not drawn) [Compound 186],< 100
9,CC1(c2cccc(NC(=O)c3c[nH]c(=O)cn3)c2)CCSC(N)=N1 (stereo not drawn) [Compound 1077],< 100
10,COc1ccc(NC(=O)COc2cccc(C3(C)CCSC(N)=N3)c2)cc1 (stereo not drawn) [Compound 67],< 100
11,CC1(c2cccc(Nc3nc4ccccc4[nH]3)c2)CCSC(N)=N1 (stereo not drawn) [Compound 681],< 100
12,CC1(c2cccc(NCC3CCCCC3)c2)CCSC(N)=N1 (stereo not drawn) [Compound 120],< 100
13,COCCCc1ccc(C(=O)Nc2cccc(C3(C)CCSC(N)=N3)c2)nc1 (stereo not drawn) [Compound 1150],< 100
14,COc1cnc(C(=O)Nc2cccc(C3(C)CCSC(N)=N3)c2)c(OC)n1 (stereo not drawn) [Compound 984],< 100
15,CC1(c2cccc(NC(=O)c3ccc(NC(=O)c4ccccn4)cn3)c2)CCSC(N)=N1 (stereo not drawn) [Compound 319],< 100
16,CC1(c2cccc(OCCc3ccccc3)c2)CCSC(N)=N1 (stereo not drawn) [Compound 833],< 100
17,CC1(c2cccc(NC(=O)CCNC(=O)c3ccc(Cl)cn3)c2)CCSC(N)=N1 (stereo not drawn) [Compound 134],< 100
18,CC1(c2ccc(NC(=O)c3ccc(Br)cc3)cc2)CCSC(N)=N1 (stereo not drawn) [Compound 278],< 100
19,CC1(c2cccc(NC(=O)c3ccc(NCc4ccccc4)cn3)c2)CCSC(N)=N1 (stereo not drawn) [Compound 608],< 100
20,CC1(c2cccc(NC(=O)Nc3ccc(Cl)cc3)c2)CCSC(N)=N1 (stereo not drawn) [Compound 181],< 100
21,CC1(c2cccc(CCC(=O)Nc3ccc(F)cc3)c2)CCSC(N)=N1 (stereo not drawn) [Compound 677],< 100
22,CC1(c2cccc(OCC(=O)Nc3ccc4ccccc4n3)c2)CCSC(N)=N1 (stereo not drawn) [Compound 390],< 100

row,SMILES,IC50 [µM]
1,CCn1nc(C)cc1C(=O)Nc1ccc(F)c(C2(C)CCSC(N)=N2)c1 (stereo not drawn) [Compound 661],< 100
2,CC1(c2cccc(OCC(=O)Nc3ccc(Cl)c4ccccc34)c2)CCSC(N)=N1 (stereo not drawn) [Compound 723],< 100
3,COC(=O)c1cccc(C(=O)Nc2cccc(C3(C)CCSC(N)=N3)c2)c1 (stereo not drawn) [Compound 346],< 100
4,CC1(c2cccc(NC(=O)C(Cl)Cl)c2)CCSC(N)=N1 (stereo not drawn) [Compound 861],< 100
5,CC1(c2cc(NC(=O)c3ccc(Cl)cn3)cc(S(C)(=O)=O)c2)CCSC(N)=N1 (stereo not drawn) [Compound 1034],< 100
6,Cc1ccc(CO/N=C/c2cccc(C3(C)CCSC(N)=N3)c2)cc1 (stereo not drawn) [Compound 719],< 100
7,CC1(c2cccc(NC(=O)c3ccc(-n4cccn4)cc3)c2)CCSC(N)=N1 (stereo not drawn) [Compound 321],< 100
8,COc1ccc(C(=O)Nc2cccc(C3(C)CCSC(N)=N3)c2)cc1 (stereo not drawn) [Compound 300],< 100
9,CC1(c2cccc(NC(=O)c3ccc(Br)cc3)c2)CCSC(N)=N1 (stereo not drawn) [Compound 959],< 100
10,CC(=O)NCc1cccc(C2(C)CCSC(N)=N2)c1 (stereo not drawn) [Compound 360],< 100
11,CC1(c2cccc(NC(=O)c3cc(CO)on3)c2)CCSC(N)=N1 (stereo not drawn) [Compound 894],< 100
12,CC1(c2cccc(NC(=O)c3ncc(C(F)(F)F)cc3Cl)c2)CCSC(N)=N1 (stereo not drawn) [Compound 482],< 100
13,CC1(c2cccc(NC(=O)c3ccc(F)c(Br)c3)c2)CCSC(N)=N1 (stereo not drawn) [Compound 215],< 100
14,CC1(c2cccc(NC(=O)c3ccc(NCc4ccncc4)cn3)c2)CCSC(N)=N1 (stereo not drawn) [Compound 393],< 100
15,CC1(c2cccc(NC(=O)c3cc(CCO)on3)c2)CCSC(N)=N1 (stereo not drawn) [Compound 1165],< 100
16,CC1(c2cccc(OCCCc3ccncc3)c2)CCSC(N)=N1 (stereo not drawn) [Compound 1221],< 100
17,CC1(c2cccc(OCC(=O)Nc3cccc(Cl)c3)c2)CCSC(N)=N1 (stereo not drawn) [Compound 1145],< 100
18,CC1(c2cc(NC(=O)c3cc[nH]n3)ccc2F)CCSC(N)=N1 (stereo not drawn) [Compound 893],< 100
19,COc1ccc(C(=O)Nc2cccc(C3(C)CCSC(N)=N3)c2)cc1[N+](=O)[O-] (stereo not drawn) [Compound 154],< 100
20,Cc1cccc2cc(C(=O)Nc3cccc(C4(C)CCSC(N)=N4)c3)[nH]c12 (stereo not drawn) [Compound 908],< 100
21,Cc1ccc(C(=O)Nc2cccc(C3(C)CCSC(N)=N3)c2)nn1 (stereo not drawn) [Compound 618],< 100
22,CC1(c2cccc(NC(=O)c3ccc(Cl)nc3Cl)c2)CCSC(N)=N1 (stereo not drawn) [Compound 865],< 100

# Same assay, conditions: recombinant human BACE-1 protein, 3 h at 30° C., pH5.0; read-out: IC50 value
row,SMILES,IC50 [µM]
1,CC1(c2cc(Cl)cc(NC(=O)c3ccc(Cl)cn3)c2)CCSC(N)=N1 (stereo not drawn) [Compound 739],0.049
2,CC1(c2cc(Cl)cc(NC(=O)c3ccco3)c2)CCSC(N)=N1 (stereo not drawn) [Compound 822],0.243
3,COCc1cc(NC(=O)c2ccc(F)cc2)cc(C2(C)CCSC(N)=N2)c1 (stereo not drawn) [Compound 896],8.5
4,C[C@@H](NC(=O)c1ccc(C2(C)CCSC(N)=N2)s1)c1ccccc1 (stereo partly drawn) [Compound 52],10
5,Cc1ccc(NC(=O)COc2cccc(C3(C)CCSC(N)=N3)c2)cc1O (stereo not drawn) [Compound 639],7.9
6,CC1(c2cccc(NC(=O)c3nc4ccccc4s3)c2)CCSC(N)=N1 (stereo not drawn) [Compound 912],0.175
7,COCc1cc(NC(=O)c2ccc(C(F)(F)F)cc2)cc(C2(C)CCSC(N)=N2)c1 (stereo not drawn) [Compound 660],4.59
8,CCOC(=O)C(F)=Cc1cccc(C2(C)CCSC(N)=N2)c1 (stereo not drawn) [Compound 1205],8.1
9,CC1(c2cc(Cl)cc(NC(=O)c3cc4ccccc4s3)c2)CCSC(N)=N1 (stereo not drawn) [Compound 832],0.222
10,CC1(c2cc(Br)cc(NC(=O)c3cccs3)c2)CCSC(N)=N1 (stereo not drawn) [Compound 490],5.1
11,CC1(c2cc(Cl)cc(NC(=O)c3ccc(Br)cc3)c2)CCSC(N)=N1 (stereo not drawn) [Compound 698],0.165
12,CC1(c2cccc(OCC(=O)Nc3ccc(Cl)cc3)c2)CCSC(N)=N1 (stereo not drawn) [Compound 246],2.9
13,Cc1ccc(NC(=O)COc2cccc(C3(C)CCSC(N)=N3)c2)cc1F (stereo not drawn) [Compound 1000],8
14,COCc1cc(NC(=O)c2ccc(Cl)cc2)cc(C2(C)CCSC(N)=N2)c1 (stereo not drawn) [Compound 395],1.5
